Laboratory results from the supplement of paper PMC10307832.

Assays:
Test in all cases: relative viability (nuclei count vs DMSO), 5 days (fraction); higher = more cells survive
Bortezomib + Alpelisib = compound: CC(C)C[C@H](NC(=O)[C@H](Cc1ccccc1)NC(=O)c1cnccn1)B(O)O [Bortezomib] + Cc1nc(NC(=O)N2CCC[C@H]2C(N)=O)sc1-c1ccnc(C(C)(C)C(F)(F)F)c1 [Alpelisib] (partner 2 µM)
Method in brief: (§1)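 Five library-drug doses in √10 steps were combined with a fixed anchor-drug dose, or a single drug was given alone, by pin tool to lung cancer cell lines in 1536-well plates the day after seeding. Nuclei were stained and counted after 5 days. Relative viability is the nuclei count in treated wells over that in vehicle wells, taken as the median of duplicate plates.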

[1] = compound: CC1=CC(=NN1)NC2=CC(=NC(=N2)/C=C/C3=CC=CC=C3)N4CCN(CC4)C + COc1cc2c(Oc3ccc(NC(=O)C4(C(=O)Nc5ccc(F)cc5)CC4)cc3F)ccnc2cc1OCCCN1CCOCC1 [Foretinib] (partner 0.25 µM)
Method in brief: as §1

Obatoclax + Lapatinib = compound: COC1=CC(c2cc3ccccc3[nH]2)=N/C1=C\c1[nH]c(C)cc1C [Obatoclax] + CS(=O)(=O)CCNCc1ccc(-c2ccc3ncnc(Nc4ccc(OCc5cccc(F)c5)c(Cl)c4)c3c2)o1 [Lapatinib] (partner 2 µM)
Method in brief: as §1

Obatoclax + Phenformin = compound: COC1=CC(c2cc3ccccc3[nH]2)=N/C1=C\c1[nH]c(C)cc1C [Obatoclax] + N=C(N)NC(=N)NCCc1ccccc1 [Phenformin] (partner 250 µM)
Method in brief: as §1

Cell Line	relative viability (Bortezomib + Alpelisib; first compound 0.0002 µM)	relative viability (Bortezomib + Alpelisib; first compound 0.000632 µM)	relative viability (Bortezomib + Alpelisib; first compound 0.002 µM)	relative viability (Bortezomib + Alpelisib; first compound 0.006325 µM)	relative viability (Bortezomib + Alpelisib; first compound 0.02 µM)	relative viability ([1]; first compound 0.08 µM)	relative viability ([1]; first compound 0.253 µM)	relative viability ([1]; first compound 0.8 µM)	relative viability ([1]; first compound 2.53 µM)	relative viability ([1]; first compound 8 µM)	relative viability (Obatoclax + Lapatinib; first compound 0.01 µM)	relative viability (Obatoclax + Lapatinib; first compound 0.03162 µM)	relative viability (Obatoclax + Lapatinib; first compound 0.1 µM)	relative viability (Obatoclax + Lapatinib; first compound 0.3162 µM)	relative viability (Obatoclax + Lapatinib; first compound 1 µM)	relative viability (Obatoclax + Phenformin; first compound 0.01 µM)	relative viability (Obatoclax + Phenformin; first compound 0.03162 µM)	relative viability (Obatoclax + Phenformin; first compound 0.1 µM)	relative viability (Obatoclax + Phenformin; first compound 0.3162 µM)	relative viability (Obatoclax + Phenformin; first compound 1 µM)
HOP-62	0.938	1.08	0.33	0.0928	0.067	1.14	1.13	1.04	0.739	0.195	0.963	0.909	0.976	1.04	1.05	0.693	0.699	0.604	0.662	0.404
LC-2-ad	0.838		0.898	0.0898	0.0932	0.875	0.942	0.753	0.413	0.204	0.977	0.906	0.802	0.817	0.867	0.637	0.49	0.541	0.585	0.499
LCLC-97TM1	0.245	0.242	0.113	0.11	0.114	0.911	0.954	0.961	0.296	0.132	0.835	0.936	1.3	0.906	1.21	0.417	0.408	0.458	0.485	0.421
LK-2		1.01	0.263	0.256	0.27	1.35	1.02	1	0.382	0.153	0.994	0.838	0.915	0.886	0.805	0.547	0.485	0.483	0.464	0.346
LOU-NH91	0.72	0.628	0.395	0.309	0.305	0.94	0.976	0.912	0.848	0.507	0.826	0.73	0.669	0.603	0.59	0.716	0.657	0.499	0.403	0.432
LU99A	0.424		0.466	0.224	0.141	0.8	0.732	0.735	0.363	0.156	0.997	0.922	0.914	0.255	0.196	0.885	0.854	0.74	0.77	0.417
LXF-289	1.03	1.01	0.946	0.0804	0.0589	0.996	1.02	0.873	0.812	0.194	0.893	0.903	0.934	0.832	0.624	0.484	0.53	0.496	0.505	0.458
NCI-H23		0.72	0.829	0.116	0.109	0.699	0.987	0.712	0.256	0.147	1.13	1.23	0.805	0.619	0.458	0.745	0.746	0.821	0.718	0.597
NCI-H322M	0.771		0.713	0.731	1.38	0.947	1.03	0.934	0.363	0.239	0.59	0.505	0.763	0.608	0.546	0.855	0.603		0.824	0.62
NCI-H358	0.782	0.873	0.613	0.161	0.162	0.705	0.886	0.307	0.145	0.0554	0.482	0.33	0.598	0.336	0.208	0.309	0.365	0.432	0.339	0.217
NCI-H460	0.419	0.455	0.515	0.125	0.0093	1	1.1	1.04	0.477	0.0228	1	1.06	0.806	0.0507	0.0208	0.448	0.53	0.441	0.25	0.112
NCI-H520	0.981	0.935	0.91	0.155	0.135	0.669	0.843	0.788	0.534	0.185	0.805	0.821	0.879	0.493	0.22	0.677	0.562	0.589	0.532	0.455
NCI-H596	0.541	0.431	0.42	0.174	0.128	0.78	0.937	0.633	0.654	0.165	0.941	0.951	0.827	0.643	0.503	0.768	0.764	0.741	0.711	0.583
NCI-H647	1.07	1.24	0.881	0.0394	0.0242	1.14	1.23	1.27	0.8	0.104	1.02	0.982	0.48	0.189	0.144	0.566	0.576	0.518	0.252	0.146
NCI-H661	0.582	0.501	0.625	0.602	0.216	0.997		1.01	0.576	0.362	0.421	0.47	0.539	0.474	0.611	0.284	0.256	0.262	0.263	0.234
NCI-H727	0.5	0.514	0.494	0.14	0.106	0.823	0.916	0.679	0.512	0.272	0.949	0.792	0.798	0.715	0.457	0.692	0.499	0.552	0.529	0.517

Cell Line	relative viability (Bortezomib + Alpelisib; first compound 0.0002 µM)	relative viability (Bortezomib + Alpelisib; first compound 0.000632 µM)	relative viability (Bortezomib + Alpelisib; first compound 0.002 µM)	relative viability (Bortezomib + Alpelisib; first compound 0.006325 µM)	relative viability (Bortezomib + Alpelisib; first compound 0.02 µM)	relative viability ([1]; first compound 0.08 µM)	relative viability ([1]; first compound 0.253 µM)	relative viability ([1]; first compound 0.8 µM)	relative viability ([1]; first compound 2.53 µM)	relative viability ([1]; first compound 8 µM)	relative viability (Obatoclax + Lapatinib; first compound 0.01 µM)	relative viability (Obatoclax + Lapatinib; first compound 0.03162 µM)	relative viability (Obatoclax + Lapatinib; first compound 0.1 µM)	relative viability (Obatoclax + Lapatinib; first compound 0.3162 µM)	relative viability (Obatoclax + Lapatinib; first compound 1 µM)	relative viability (Obatoclax + Phenformin; first compound 0.01 µM)	relative viability (Obatoclax + Phenformin; first compound 0.03162 µM)	relative viability (Obatoclax + Phenformin; first compound 0.1 µM)	relative viability (Obatoclax + Phenformin; first compound 0.3162 µM)	relative viability (Obatoclax + Phenformin; first compound 1 µM)
NCI-H838	0.977	0.983	1.13	0.475	0.134	0.99	1.14	0.965	0.798	0.131	1.07	1.17	0.465	0.62	0.377	0.567	0.622	0.362	0.46	0.322
NCI-H1355	0.826	0.783	0.685	0.137	0.126	0.879	1.05	0.985	0.743	0.18	1.06	0.886	0.838	0.862	0.921	0.456	0.458	0.431	0.44	0.397
NCI-H1395	1.15	1.06	0.387	0.411	0.393	1.11	1.11	0.93	0.663	0.347	1	0.943	0.79	1.09	0.592	0.449	0.38	0.428	0.467	0.44
NCI-H1437	0.951	0.975	1.05	0.0854	0.0875	1.19	1.31	1.3	1.25	0.474	0.755	0.859	0.712	0.707	0.433	0.242	0.317	0.314	0.296	0.246
NCI-H1563	0.882	0.848	0.844	0.505	0.489	0.903	0.923	0.87	0.746	0.565	0.902	1.16	0.955	0.794	0.711	0.621	0.696	0.629	0.683	0.586
NCI-H1651	1	0.87	0.748	0.114	0.0938	0.732	0.899	0.913	0.447	0.162	0.645	0.764	0.744	0.664	0.341	0.384	0.324	0.386	0.252	0.184
NCI-H1666	1.04	0.98	1.04	0.232	0.217	1.02	0.948	1	0.739	0.33	0.868	0.682	0.469	0.273	0.291	0.576	0.542	0.571	0.494	0.421
NCI-H1734	0.706	0.732	0.612	0.154	0.113	0.816	0.828	0.815	0.447	0.161	1.04	0.994		0.661	0.706	0.436	0.341	0.318	0.318	0.32
NCI-H1755	0.944	0.926	0.951	0.178	0.139	0.9	0.962	0.866	0.622	0.297	1.04	1.03	0.81	1.07	0.995	0.622	0.6	0.492	0.634	0.541
NCI-H1793	0.668	0.589	0.776	0.475	0.127	0.349	0.663	0.329	0.121	0.112	0.802	0.68	0.61	0.717	0.836	0.404	0.32	0.377	0.345	0.332
NCI-H1915	1.05	1.03	0.892	0.81	0.0434	1.01	1.13	1.06	0.817	0.386	1.03	0.879	0.852	0.978	0.925	0.361	0.362	0.337	0.363	0.343
NCI-H1944	0.807	0.79	0.764	0.84	0.154	0.916	0.949	0.853	0.535	0.216	0.904	0.659	0.791	0.794	0.787	0.215	0.202	0.149	0.201	0.18
NCI-H1975	0.696	0.615	0.163	0.127	0.108	0.928	1.02	0.795	0.326	0.128	1.01	0.823	0.649	0.825	0.341	0.438	0.427		0.355	0.228
NCI-H1993	0.697	0.617	0.708	0.462	0.484	0.754	0.911	0.763	0.594	0.447	0.809	0.771	0.835	0.755	0.865	0.481	0.537	0.531	0.478	0.48
NCI-H2009	1.13	1.19	1.14	0.543	0.0447	1.22	1.22	1.23	0.493	0.217	0.92	1	0.447	0.234	0.222	0.472	0.507	0.385	0.27	0.194
NCI-H2023	0.525	0.612	0.74	0.383	0.0813	0.719	0.974	0.832	0.362	0.0501	1.08	0.755	0.761	0.622	0.122	0.387	0.438	0.425	0.293	0.152
